Assay results published in patent US20210382058A1, “PATIENT SELECTION FOR TREATMENT OF MYC POSITIVE CANCERS WITH INDENOISOQUINOLINES” (Purdue Research Foundation, priority 2020, published 2021).
Read-outs that look alike come from different tables or passages of the source.

Experiments:
[1] = tested on: MYC protein expression in MCF-7 breast cancer cells; assay: Western blotting of MYC protein level in MCF-7 cells; format: cell-based, human; details: MCF-7, 0.5, 1, 2, and 4 μM, 24 h
Summary of the method: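 Immunoblotting with ECL detection quantified MYC, with GAPDH (1:2000) as reference and anti-MYC at 1:1000.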

NCI-60 cancer cell lines = assay: NCI-60 cancer cell line drug screen (GI50, MGM); format: cell-based, human; details: Homo sapiens; for GI50: read-out: Antiproliferative Activities [GI50 (μM)]
Procedure: Cancer cells were incubated with the test compounds at five concentrations ranging from 100 μM to 10 nM for 48 h. […] The approximate average of GI50 values across the entire panel of NCI-60 cancer cell lines for each compound was recorded as the MGM value.

human topoisomerase I = target: T1, human topoisomerase I (Homo sapiens, UniProt P11387); details: relative topoisomerase I inhibition levels, previously determined, six levels (0 - 5, +++++ = 5); cited from earlier work
T1 sequence (P11387 1-765): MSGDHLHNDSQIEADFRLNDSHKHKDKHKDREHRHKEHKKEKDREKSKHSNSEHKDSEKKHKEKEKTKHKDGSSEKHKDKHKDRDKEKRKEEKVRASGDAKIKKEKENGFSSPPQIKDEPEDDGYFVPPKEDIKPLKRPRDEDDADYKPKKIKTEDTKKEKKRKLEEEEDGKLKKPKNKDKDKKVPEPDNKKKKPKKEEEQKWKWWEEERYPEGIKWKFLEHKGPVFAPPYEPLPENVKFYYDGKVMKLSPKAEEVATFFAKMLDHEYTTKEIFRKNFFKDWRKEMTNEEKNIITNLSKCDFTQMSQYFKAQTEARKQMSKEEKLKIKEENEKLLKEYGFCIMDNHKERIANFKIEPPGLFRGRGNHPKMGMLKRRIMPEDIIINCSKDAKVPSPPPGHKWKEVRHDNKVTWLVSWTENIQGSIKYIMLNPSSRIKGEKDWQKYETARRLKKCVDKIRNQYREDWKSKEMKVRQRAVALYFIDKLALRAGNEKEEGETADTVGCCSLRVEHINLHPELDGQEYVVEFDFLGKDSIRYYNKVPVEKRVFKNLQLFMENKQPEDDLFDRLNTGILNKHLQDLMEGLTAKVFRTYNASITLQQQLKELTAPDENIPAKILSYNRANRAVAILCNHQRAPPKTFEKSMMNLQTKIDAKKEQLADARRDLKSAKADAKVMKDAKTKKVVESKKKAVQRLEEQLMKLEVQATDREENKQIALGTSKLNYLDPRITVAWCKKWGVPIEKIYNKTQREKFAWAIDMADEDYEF

COc1cnc2c(c1)C(=O)c1c-2n(CCCN2CCCC2)c(=O)c2cc([N+](=O)[O-])ccc12 [Compound 9]
MYC-inhibitory effect (MYC protein, western blot) [1]: clear MYC-inhibitory effect
GI50 (NCI-60 cancer cell lines; 786-0, Renal Cancer, 786-0): 0.03 µM
GI50 (NCI-60 cancer cell lines; A549, Non-Small Cell Lung Cancer, A549/ATCC): 0.05 µM
GI50 (NCI-60 cancer cell lines; ACHN, Renal Cancer, ACHN): < 0.01 µM
GI50 (NCI-60 cancer cell lines; BT-549, Breast Cancer, BT-549): 0.35 µM
GI50 (NCI-60 cancer cell lines; CAKI-1, Renal Cancer, CAKI-1): < 0.01 µM
GI50 (NCI-60 cancer cell lines; CCRF-CEM, Leukemia, CCRF-CEM): < 0.01 µM
GI50 (NCI-60 cancer cell lines; COLO 205, Colon Cancer, COLO 205): 0.04 µM
GI50 (NCI-60 cancer cell lines; DU-145, Prostate Cancer, DU-145): 0.02 µM
GI50 (NCI-60 cancer cell lines; EKVX, Non-Small Cell Lung Cancer, EKVX): 0.3 µM
GI50 (NCI-60 cancer cell lines; HCC 2998, Colon Cancer, HCC-2998): 0.16 µM
GI50 (NCI-60 cancer cell lines; HCT-15, Colon Cancer, HCT-15): 0.06 µM
GI50 (NCI-60 cancer cell lines; HCT-116, Colon Cancer, HCT-116): < 0.01 µM
GI50 (NCI-60 cancer cell lines; HL-60, Leukemia, HL-60(TB)): 0.03 µM
GI50 (NCI-60 cancer cell lines; HOP-62, Non-Small Cell Lung Cancer, HOP-62): < 0.01 µM
GI50 (NCI-60 cancer cell lines; HOP-92, Non-Small Cell Lung Cancer, HOP-92): 0.55 µM
GI50 (NCI-60 cancer cell lines; HT-29, Colon Cancer, HT29): 0.02 µM
GI50 (NCI-60 cancer cell lines; Hs-578T, Breast Cancer, HS 578T): 1.91 µM
GI50 (NCI-60 cancer cell lines; IGROV-1, Ovarian Cancer, IGROV1): 0.02 µM
GI50 (NCI-60 cancer cell lines; K562, Leukemia, K-562): 0.02 µM
GI50 (NCI-60 cancer cell lines; KM12, Colon Cancer, KM12): 0.14 µM
GI50 (NCI-60 cancer cell lines; LOX IMVI, Melanoma, LOX IMVI): < 0.01 µM
GI50 (NCI-60 cancer cell lines; Leukemia, SR): < 0.01 µM
GI50 (NCI-60 cancer cell lines; MCF7, Breast Cancer, MCF7): < 0.01 µM
GI50 (NCI-60 cancer cell lines; MDA-MB-231, Breast Cancer, MDA-MB-231/ATCC): 0.68 µM
GI50 (NCI-60 cancer cell lines; MDA-MB-435, Melanoma, MDA-MB-435): 0.06 µM
GI50 (NCI-60 cancer cell lines; MDA-MB-468, Breast Cancer, MDA-MB-468): 0.03 µM
GI50 (NCI-60 cancer cell lines; MOLT-4, Leukemia, MOLT-4): < 0.01 µM
GI50 (NCI-60 cancer cell lines; Malme-3M, Melanoma, MALME-3M): 0.06 µM
GI50 (NCI-60 cancer cell lines; Melanoma, M14): < 0.01 µM
GI50 (NCI-60 cancer cell lines; NCI-H23, Non-Small Cell Lung Cancer, NCI-H23): 0.03 µM
GI50 (NCI-60 cancer cell lines; NCI-H226, Non-Small Cell Lung Cancer, NCI-H226): 0.1 µM
GI50 (NCI-60 cancer cell lines; NCI-H322M, Non-Small Cell Lung Cancer, NCI-H322M): 0.05 µM
GI50 (NCI-60 cancer cell lines; NCI-H460, Non-Small Cell Lung Cancer, NCI-H460): < 0.01 µM
GI50 (NCI-60 cancer cell lines; NCI-H522, Non-Small Cell Lung Cancer, NCI-H522): 0.06 µM
GI50 (NCI-60 cancer cell lines; OVCAR-3, Ovarian Cancer, OVCAR-3): 0.06 µM
GI50 (NCI-60 cancer cell lines; OVCAR-4, Ovarian Cancer, OVCAR-4): 0.08 µM
GI50 (NCI-60 cancer cell lines; OVCAR-5, Ovarian Cancer, OVCAR-5): 0.16 µM
GI50 (NCI-60 cancer cell lines; OVCAR-8, Ovarian Cancer, OVCAR-8): 0.09 µM
GI50 (NCI-60 cancer cell lines; Ovarian Cancer, NCl/ADR-RES): 0.03 µM
GI50 (NCI-60 cancer cell lines; Prostate Cancer, PC-3): 0.07 µM
GI50 (NCI-60 cancer cell lines; RPMI-8226, Leukemia, RPMI-8226): 0.04 µM
GI50 (NCI-60 cancer cell lines; RXF 393, Renal Cancer, RXF 393): 0.06 µM
GI50 (NCI-60 cancer cell lines; Renal Cancer, U0-31): < 0.01 µM
GI50 (NCI-60 cancer cell lines; SF-268, CNS Cancer, SF-268): 0.02 µM
GI50 (NCI-60 cancer cell lines; SF-295, CNS Cancer, SF-295): < 0.01 µM
GI50 (NCI-60 cancer cell lines; SF-539, CNS Cancer, SF-539): 0.03 µM
GI50 (NCI-60 cancer cell lines; SK-MEL-2, Melanoma, SK-MEL-2): 1.01 µM
GI50 (NCI-60 cancer cell lines; SK-MEL-5, Melanoma, SK-MEL-5): 0.07 µM
GI50 (NCI-60 cancer cell lines; SK-MEL-28, Melanoma, SK-MEL-28): 10.6 µM
GI50 (NCI-60 cancer cell lines; SK-OV-3, Ovarian Cancer, SK-OV-3): 0.03 µM
GI50 (NCI-60 cancer cell lines; SN12C, Renal Cancer, SN12C): 0.04 µM
GI50 (NCI-60 cancer cell lines; SNB-19, CNS Cancer, SNB-19): 0.04 µM
GI50 (NCI-60 cancer cell lines; SNB-75, CNS Cancer, SNB-75): 0.05 µM
GI50 (NCI-60 cancer cell lines; SW-620, Colon Cancer, SW-620): < 0.01 µM
GI50 (NCI-60 cancer cell lines; T47D, Breast Cancer, T-47D): 0.02 µM
GI50 (NCI-60 cancer cell lines; TK-10, Renal Cancer, TK-10): 0.37 µM
GI50 (NCI-60 cancer cell lines; U-251, CNS Cancer, U251): 0.01 µM
GI50 (NCI-60 cancer cell lines; UACC-62, Melanoma, UACC-62): 0.02 µM
GI50 (NCI-60 cancer cell lines; UACC-257, Melanoma, UACC-257): 0.18 µM
mean GI50 across NCI-60 panel (MGM) (NCI-60 cancer cell lines; average of GI50 values across the entire panel of NCI-60 cancer cell lines): 45 nM
Top1 Inhibiton (human topoisomerase I): ++ (medium inhibition, ++, MYC expression inhibited at 2.0 μM, or no clear dose-dependent MYC inhibition)
